Source: the RepoRT retention time repository

Experiment: HILIC, Waters ACQUITY UPLC BEH HILIC, 150 × 2.1 mm, 1.7 µm, 40 °C, 0.6 mL/min, estimated dead time 0.55 min; A: water + 0.1% formic acid + 20 mM ammonium formate, pH 3.5; B: acetonitrile + 0.1% formic acid, pH 3; gradient (min/%B) 0/95 0.1/95 4.6/80 5.5/50 7.0/50 7.1/95 7.2/95 7.3/95 7.4/95 7.5/95 7.6/95 7.7/95 7.8/95 12.50/95 12.65/95
Conditions: stereoisomer not certain

Compound | LC retention time
CC(=O)NCCCNCCCC(=O)O [N-Acetylisoputreanine] | 4.93 min
CC(C)C(=O)OC(CC(=O)[O-])C[N+](C)(C)C (centres undefined) [Isobutyrylcarnitine] | 4.69 min
C[N+](C)(C)[O-] [Trimethylamine N-oxide] | 4.18 min
C=CC1=C(C)C(C=c2[nH]c(=Cc3[nH]c(C=C4NC(=O)C(C)=C4C=C)c(C)c3CCC(=O)O)c(CCC(=O)O)c2C)=NC1=O [Biliverdin] | 0.732 min
CN1CCCC1c1cccnc1 (centres undefined) [Nicotine] | 4.14 min
Nc1ccnc(=O)[nH]1 [Cytosine] | 2.39 min
NC(Cc1cnc[nH]1)C(=O)O (centres undefined) [Histidine] | 6.15 min
O=C(O)C=Cc1cnc[nH]1 [Urocanic acid] | 1.3 min
CC(=O)Nc1ccc(O)cc1 [Acetaminophen] | 0.71 min
CN(C)C(N)=NCCC[C@H](N)C(=O)O [Asymmetric Dimethylarginine] | 5.91 min
C[N+](C)(C)CC(O)CC(=O)[O-] (centres undefined) [Carnitine] | 5.32 min
CCCCCCCCCCCCCC(=O)OC(CC(=O)[O-])C[N+](C)(C)C (centres undefined) [Tetradecanoylcarnitine CAR(14:0)] | 3.78 min
CCCCCC(=O)OC(CC(=O)[O-])C[N+](C)(C)C (centres undefined) [Hexanoylcarnitine CAR(6:0)] | 4.34 min
CC(C)CC(=O)OC(CC(=O)[O-])C[N+](C)(C)C (centres undefined) [Isovalerylcarnitine] | 4.39 min
CC(CCC(=O)NCC(=O)O)C1CCC2C3C(O)CC4CC(O)CCC4(C)C3CC(O)C12C (centres undefined) [Glycocholic Acid] | 2.87 min
CCCCCCCC(=O)OC(CC(=O)[O-])C[N+](C)(C)C (centres undefined) [Octanoylcarnitine CAR(C8:0)] | 4.13 min
C[N+](C)(C)CC(CC(=O)[O-])OC(=O)c1ccccc1 (centres undefined) [Benzoylcarnitine] | 4.45 min
NC(=O)NCCCC(N)C(=O)O (centres undefined) [Citrulline] | 5.74 min
CC(CCC(=O)NCC(=O)O)C1CCC2C3CCC4CC(O)CCC4(C)C3CCC12C (centres undefined) [Glycolithocholic acid] | 1.22 min
NCCCCC(N)C(=O)O (centres undefined) [Lysine] | 5.98 min
Cn1cc(C(N)=O)ccc1=O [N1-methyl-2-pyridone-5-carboxamide] | 1.24 min
NC(Cc1ccccc1)C(=O)O (centres undefined) [Phenylalanine] | 3.78 min
NC(Cc1ccc(OS(=O)(=O)O)cc1)C(=O)O (centres undefined) [O-Sulfotyrosine] | 3.2 min
C[N+](C)(C)CC(O)(CC(=O)[O-])C(=O)Cc1ccccc1 (centres undefined) [Phenylacetyl carnitine] | 4.47 min
NC(N)=NCCCC(N)C(=O)O (centres undefined) [Arginine] | 5.92 min
CCCCCCCCCC(=O)OC(CC(=O)[O-])C[N+](C)(C)C (centres undefined) [Decanoylcarnitine CAR(10:0)] | 3.92 min
C[n+]1ccccc1 [N-Methylpyridinium] | 3.82 min

Compound | LC retention time
CC(O)CC(=O)OC(CC(=O)[O-])C[N+](C)(C)C (centres undefined) [3-Hydroxybutyrylcarnitine CAR(4:0-OH)] | 5.4 min
NC(N)=NCCCC(=O)O [4-Guanidinobutanoic acid] | 3.84 min
Cn1cnc(CC(N)C(=O)O)c1 (centres undefined) [1-Methylhistidine] | 6.35 min
CNc1ncnc2c1ncn2C1OC(CO)C(O)C1O (centres undefined) [N6-Methyladenosine] | 1.43 min
CCCCC(=O)OC(CC(=O)[O-])C[N+](C)(C)C (centres undefined) [Valerylcarnitine] | 4.39 min
CN1CCCC1C(=O)O (centres undefined) [N-methylproline] | 4.48 min
Nc1nc2ncc(C(O)C(O)CO)nc2c(=O)[nH]1 (centres undefined) [Neopterin] | 2.32 min
NCCC(=O)NC(Cc1cnc[nH]1)C(=O)O (centres undefined) [Carnosine] | 6.01 min
CCC(C)C(=O)OC(CC(=O)[O-])C[N+](C)(C)C (centres undefined) [2-methylbutyrylcarnitine] | 4.39 min
CC(C)(CO)C(O)C(=O)NCCC(=O)O (centres undefined) [Pantothenic acid] | 1.13 min
O=C(O)[C@@H]1CCCN1C(=O)[C@@H]1CCCN1 [L-prolyl-L-proline] | 5.4 min
O=c1[nH]cc(C2OC(CO)C(O)C2O)c(=O)[nH]1 (centres undefined) [Pseudouridine] | 1.25 min
CC(CCC(=O)NCCS(=O)(=O)O)C1CCC2C3CCC4CC(O)CCC4(C)C3CC(O)C12C (centres undefined) [Taurodeoxycholic Acid] | 1.81 min
CC(=O)CC(c1ccccc1)c1c(O)c2ccccc2oc1=O (centres undefined) [Warfarin] | 0.673 min
Cn1c[n+](C2OC(CO)C(O)C2O)c2nc(N)[nH]c(=O)c21 (centres undefined) [7-Methylguanosine] | 1.97 min
C[N+](C)(C)CCOP(=O)([O-])OCC(O)CO (centres undefined) [a-Glycerophosphocholine] | 6.02 min
CC(=O)NCCCNCCCCN [N1-Acetylspermidine] | 5.99 min
CCCC(=O)OC(CC(=O)[O-])C[N+](C)(C)C (centres undefined) [Butyrylcarnitine] | 4.69 min
CN1C(=O)CCC1c1ccc[n+]([O-])c1 (centres undefined) [Cotinine N-oxide] | 2.87 min
CC(CCC(=O)NCCS(=O)(=O)O)C1CCC2C3C(O)CC4CC(O)CCC4(C)C3CC(O)C12C (centres undefined) [Taurocholic Acid] | 2.47 min
CSCCC(N)C(=O)O (centres undefined) [Methionine] | 4.11 min
Cn1cnc2c(ncn2C2OC(CO)C(O)C2O)c1=N (centres undefined) [1-Methyladenosine] | 4.1 min
Cn1cncc1CC(NC(=O)CCN)C(=O)O (centres undefined) [Anserine] | 6.1 min
O=C(O)CNC(=O)c1ccccc1 [Hippuric acid] | 1.16 min
CN(C)CC(=O)O [N,N-Dimethylglycine] | 4.64 min
CC(CCC(=O)NCC(=O)O)C1CCC2C3CCC4CC(O)CCC4(C)C3CC(O)C12C (centres undefined) [Glycodeoxycholic acid] | 1.96 min
CC(=O)OC(CC(=O)[O-])C[N+](C)(C)C [L-Acetylcarnitine CAR(2:0)] | 5.03 min

Compound | LC retention time
CC(=O)N[C@@H]1C(O)O[C@H](CO)[C@@H](O)[C@@H]1O (stereo partly drawn) [N-Acetyl-D-mannosamine] | 1.81 min
NC(Cc1c[nH]c2ccccc12)C(=O)O (centres undefined) [Tryptophan] | 3.82 min
c1cncc(C2CCCN2)c1 (centres undefined) [Nornicotine] | 4.22 min
C[N+](C)(C)CC(CC(=O)[O-])OC(=O)CCCC(=O)O (centres undefined) [Glutarylcarnitine CAR(5:0-DC)] | 5.1 min
C[N+](C)(C)CCCC(=O)[O-] [4-Trimethylammoniobutanoic acid (deoxycarnitine)] | 4.91 min
CSCC1OC(n2cnc3c(N)ncnc32)C(O)C1O (centres undefined) [5'-Methylthioadenosine] | 1.3 min
CCCCCCCCCCCCCCCC(=O)OC(CC(=O)[O-])C[N+](C)(C)C (centres undefined) [Palmitoylcarnitine CAR(C16:0)] | 3.78 min
CN(C)c1nc2c(ncn2C2OC(CO)C(O)C2O)c(=O)[nH]1 (centres undefined) [N2,N2-Dimethylguanosine] | 1.9 min
NC(N)=NCCCCC(N)C(=O)O (centres undefined) [Homoarginine] | 5.92 min
CN(C)C(=N)N=C(N)N [1,1-Dimethylbiguanide (Metformin)] | 3.42 min
O=C(O)CCc1cnc[nH]1 [Imidazolepropionic acid] | 3.76 min
Cn1c(N)nc2c(ncn2C2OC(CO)C(O)C2O)c1=O (centres undefined) [1-Methylguanosine] | 1.73 min
CC(N)C(=O)O (centres undefined) [Alanine] | 4.57 min
C[S+](CCC(N)C(=O)O)CC1OC(n2cnc3c(N)ncnc32)C(O)C1O (centres undefined) [S-Adenosylmethionine] | 6.25 min
Nc1ncnc2c1ncn2C1OC(CO)C(O)C1O (centres undefined) [Adenosine] | 1.75 min
C[n+]1cccc(C(N)=O)c1 [1-Methylnicotinamide] | 4.08 min
Cn1c(=O)c2c(ncn2C)n(C)c1=O [Caffeine] | 0.85 min
CC12CCC(=O)C=C1CCC1C2C(O)CC2(C)C1CCC2(O)C(=O)CO (centres undefined) [Cortisol] | 0.71 min
Cc1ncc(C[n+]2csc(CCO)c2C)c(N)n1 [Thiamine] | 5.49 min
CC(CCC(=O)NCC(=O)O)C1CCC2C3C(O)CC4CC(O)CCC4(C)C3CCC12C (centres undefined) [Glycoursodeoxycholic acid] | 1.85 min
CCC(=O)OC(CC(=O)[O-])C[N+](C)(C)C (centres undefined) [Propionylcarnitine CAR(3:0)] | 4.82 min
CCCCCCCCCCCC(=O)OC(CC(=O)[O-])C[N+](C)(C)C (centres undefined) [Lauroylcarnitine CAR(12:0)] | 3.97 min
CC(=O)NCCCC[C@H](N)C(=O)O [N6-Acetyl-L-lysine] | 5.44 min
C[N+](C)(C)C(Cc1c[nH]c2ccccc12)C(=O)[O-] (centres undefined) [Tryptophan betaine] | 3.91 min
CN(CC(=O)O)C(=N)N [Creatine] | 5.06 min
